In ChEMBL document CHEMBL1133923, “Evolution of anti-HIV drug candidates. Part 3: Diarylpyrimidine (DAPY) analogues” (Bioorg Med Chem Lett, 2001):

How the values were obtained:
Assay in all cases: microbe, parasite or virus in culture
[1] = test system: Human immunodeficiency virus 1; conditions: Human immunodeficiency virus 1, MT4
Description: Inhibitory activity against LAI strain of HIV-I in MT-4 cells

[2] = test system: Human immunodeficiency virus 1; conditions: Human immunodeficiency virus 1, MT4; remark: listed apart in the source
Description: Inhibitory activity against 100I strain and 103N strain of HIV-I in MT-4 cells

[3] = test system: Human immunodeficiency virus 1; conditions: Human immunodeficiency virus 1, MT4; remark: listed apart in the source
Description: Inhibitory activity against 100I strain of HIV-I in MT-4 cells

[4] = test system: Human immunodeficiency virus 1; conditions: Human immunodeficiency virus 1, MT4; remark: listed apart in the source
Description: Inhibitory activity against 103N strain of HIV-I in MT-4 cells

[5] = test system: Human immunodeficiency virus 1; conditions: Human immunodeficiency virus 1, MT4; remark: listed apart in the source
Description: Inhibitory activity against 181C strain of HIV-I in MT-4 cells

[6] = test system: Human immunodeficiency virus 1; conditions: Human immunodeficiency virus 1, MT4; remark: listed apart in the source
Description: Inhibitory activity against 188L strain of HIV-I in MT-4 cells

[7] = test system: Human immunodeficiency virus 1; format: functional, organism-based, MT4
Description: Inhibitory activity against 103N strain and 181C strain of HIV-I in MT-4 cells

[8] = Human immunodeficiency virus 1, MT4

Row | SMILES | IC50 [1] | IC50 [2] | IC50 [3] | IC50 [4] | IC50 [5] | IC50 [6] | IC50 [7, 8] | IC50 ([7]; mt4)
1 | Cc1cc(C)c(Nc2nc(Nc3ccc(C#N)cc3)ncc2-c2ccccc2)c(C)c1 | 24 nM |  |  |  |  |  |  | 
2 | Cc1cc(Cl)cc(Cl)c1Nc1ccnc(Nc2ccc(C#N)cc2)n1 | 1 nM | > 10000 nM | 60 nM | 13 nM | 18 nM | 86 nM |  | 
3 | Cc1cc(C)c(Oc2ccnc(Nc3ccc(C#N)cc3)n2)c(C)c1 | 2.9 nM | 8200 nM | 22 nM | 3 nM | 38 nM | 55 nM | 1100 nM | 
4 | N#Cc1ccc(Nc2nccc(Nc3c(F)cc(Br)cc3Br)n2)cc1 | 0.6 nM | > 10000 nM | 15 nM | 5.7 nM | 15 nM | 64 nM |  | 
5 | N#Cc1ccc(Nc2nc(N)nc(Cc3c(Cl)cccc3Cl)n2)cc1 | 6 nM |  |  |  |  |  |  | 
6 | C=Cc1cnc(Nc2ccc(C#N)cc2)nc1Nc1c(C)cc(C)cc1C | 2.5 nM | > 100000 nM | 35 nM | 5.8 nM | 36 nM | 29 nM | 106 nM | 
7 | Cc1cnc(Nc2ccc(C#N)cc2)nc1Nc1c(C)cc(C#N)cc1C | 0.8 nM | > 10000 nM | 16 nM | 1.7 nM | 12 nM | 16 nM | 162 nM | 
8 | Cc1cc(Br)cc(C)c1Oc1ccnc(Nc2ccc(C#N)cc2)n1 | 2.9 nM | 2370 nM | 113 nM | 4.7 nM | 59 nM | 79 nM | 217 nM | 
9 | Cc1cccc(C)c1Nc1ccnc(Nc2ccc(C#N)cc2)n1 | 0.7 nM | > 10000 nM | 212 nM | 28 nM | 61 nM | 260 nM |  | 
10 | Cc1cc(Br)c(Nc2ccnc(Nc3ccc(C#N)cc3)n2)c(Br)c1 | 0.7 nM | > 100000 nM | 3 nM | 3 nM | 3.4 nM | > 100000 nM | 133 nM | 
11 | Cc1cc(C#N)cc(C)c1Nc1nc(Nc2ccc(C#N)cc2)ncc1Cl | 1.2 nM | 144 nM | 5.2 nM | 0.9 nM | 14 nM | 4.7 nM | 69 nM | 
12 | N#Cc1ccc(Nc2cc(Cc3c(Cl)cccc3Cl)nc(N)n2)cc1 | 10 nM |  | 96600 nM | 33300 nM | > 100000 nM | > 100000 nM |  | 
13 | Cc1cc(C)c(Nc2nc(Nc3ccc(C#N)cc3)ncc2C)c(C)c1 | 1.7 nM | > 100000 nM | 12 nM | 2.6 nM | 12 nM | 18 nM | 53 nM | 
14 | Cc1cc(C#N)cc(C)c1Oc1nc(Nc2ccc(C#N)cc2)ncc1Br | 1.4 nM | 49 nM | 6.6 nM | 1.4 nM | 22 nM | 5.9 nM | 25 nM | 
15 | Cc1cc(C#N)cc(C)c1Nc1nc(Nc2ccc(C#N)cc2)ncc1C#N | 0.5 nM | 312 nM | 91 nM | 2.6 nM | 76 nM | 8.6 nM | 181 nM | 
16 | Cc1cc(C)c(Nc2nc(Nc3ccc(C#N)cc3)ncc2Cl)c(C)c1 | 2.7 nM | 319 nM | 17 nM | 6 nM | 32 nM | 34 nM | 138 nM | 
17 | Cc1cc(C#N)cc(C)c1Nc1ccnc(Nc2ccc(C#N)cc2)n1 | 0.4 nM | 1090 nM | 34 nM | 1.9 nM | 7.1 nM | 7.8 nM |  | 37 nM
18 | Cc1cc(C#N)cc(C)c1Oc1nc(Nc2ccc(C#N)cc2)ncc1[N+](=O)[O-] | 18 nM | > 10000 nM | 121 nM | 10 nM | 304 nM | 782 nM | 194 nM | 
19 | Cc1cc(C#N)cc(C)c1Nc1nc(Nc2ccc(C#N)cc2)ncc1Br | 0.4 nM | 37 nM | 7 nM | 0.4 nM | 9.6 nM | 3.3 nM |  | 32 nM

Row | SMILES | IC50 [1] | IC50 [2] | IC50 [3] | IC50 [4] | IC50 [5] | IC50 [6] | IC50 [7, 8] | IC50 ([7]; mt4)
20 | Cc1cc(Cl)cc(C)c1Nc1ccnc(Nc2ccc(C#N)cc2)n1 | 2.1 nM | > 10000 nM | 327 nM | 13 nM | 19 nM | 115 nM | 401 nM | 
21 | Cc1cc(C)c(Sc2ccnc(Nc3ccc(C#N)cc3)n2)c(C)c1 | 3.6 nM | 4790 nM | 54 nM | 12 nM | 25 nM | 20 nM |  | 
22 | Cc1cc(Br)cc(C)c1Nc1ccnc(Nc2ccc(C#N)cc2)n1 | 2.3 nM | > 100000 nM | 76 nM | 12 nM | 17 nM | 69 nM | 150 nM | 
23 | C#Cc1cnc(Nc2ccc(C#N)cc2)nc1Nc1c(C)cc(C)cc1C |  | 71 nM |  | 6.2 nM |  |  | 42 nM | 
24 | Cc1cc(C)c(Nc2nc(Nc3ccc(C#N)cc3)ncc2Br)c(C)c1 | 5.5 nM | 348 nM | 11 nM | 7.3 nM | 36 nM | 27 nM | 283 nM | 
25 | Cc1cc(C#N)cc(C)c1Oc1nc(Nc2ccc(C#N)cc2)ncc1Cl | 1.4 nM | 138 nM | 7.5 nM | 2.6 nM | 34 nM | 4.8 nM | 38 nM | 
26 | CC(=O)Nc1cnc(Nc2ccc(C#N)cc2)nc1Oc1c(C)cc(C#N)cc1C |  | 205 nM |  | 3.3 nM |  |  | 30 nM | 
27 | Cc1cc(C#N)cc(C)c1Oc1ccnc(Nc2ccc(C#N)cc2)n1 | 1.1 nM | 798 nM | 73 nM | 2.7 nM | 37 nM | 19 nM |  | 94 nM
28 | Cc1cc(C#N)cc(C)c1Oc1nc(Nc2ccc(C#N)cc2)ncc1N | 1 nM | 282 nM | 16 nM | 1.3 nM | 9.3 nM | 5.7 nM | 14 nM | 
29 | Cc1cc(Br)cc(C)c1Sc1ccnc(Nc2ccc(C#N)cc2)n1 | 5.7 nM | 3890 nM | 174 nM | 39 nM | 68 nM | 44 nM | 354 nM | 
30 | C#Cc1cc(C)c(Oc2ccnc(Nc3ccc(C#N)cc3)n2)c(C)c1 | 5.5 nM | 4190 nM | 185 nM | 12 nM | 171 nM | 50 nM | 793 nM | 
31 | N#Cc1ccc(Nc2nccc(Nc3c(Cl)cc(Cl)cc3Cl)n2)cc1 | 0.7 nM | > 10000 nM | 14 nM | 3 nM | 10 nM | 99 nM |  | 
32 | Cc1cc(C)c(Nc2nc(Nc3ccc(C#N)cc3)ncc2C#N)c(C)c1 | 1 nM |  | 63 nM | 3.4 nM | 40 nM | 77 nM |  | 
33 | N#Cc1ccc(Nc2cc(N)nc(Cc3c(Cl)cccc3Cl)n2)cc1 | 452 nM |  | > 100000 nM | > 100000 nM | > 100000 nM | > 100000 nM |  | 
34 | N#Cc1ccc(Nc2nc(N)cc(Cc3c(Cl)cccc3Cl)n2)cc1 | 1 nM |  | 299 nM | 12 nM | 175 nM | 71 nM |  | 
35 | Cc1cc(C)c(Nc2ccnc(Nc3ccc(C#N)cc3)n2)c(C)c1 [DAPIVIRINE] | 1 nM | > 10000 nM | 18 nM | 4.3 nM | 7.5 nM | 48 nM | 44 nM | 
36 | CC(C)Nc1cccnc1N1CCN(C(=O)c2cc3cc(NS(C)(=O)=O)ccc3[nH]2)CC1 [DELAVIRDINE] | 63 nM |  | 2510 nM | 2510 nM | 2000 nM | 1260 nM | 20000 nM | 
37 | Cc1cc(C#N)cc(C)c1Oc1nc(Nc2ccc(C#N)cc2)nc(N)c1Br [ETRAVIRINE] | 1.4 nM | 19 nM | 3.3 nM | 1.2 nM | 7 nM | 4.6 nM | 4.3 nM | 
